According to patent US20240207422A1, “NERVE TARGETING PEPTIDE CONJUGATES AND METHODS OF USE” (Alume Biosciences, Inc., priority 2022, published 2024):

Test system: human nerve extract
Experiment: Phage display selection on plates coated with human nerve extract (Plated Nerve2), NextGen sequence counts
Type: binding
Conditions: unique sequence count (relative enrichment); Plated Nerve2 only
Protocol: Several m13 phage libraries were constructed expressing randomized variants of a parent peptide (QVPWEEPYYVVKKS-SGGL; SEQ ID NO: 576). In particular, the first 14 amino acids of the parent peptide were randomized using degenerate oligonucleotide synthesis to obtain a diverse set of peptides with a mutation rate of about 50% per residue.
To accomplish this, synthesis was carried out by the XXK codon design approach, where X is any base and K is G or T. To bias synthesis towards the parent sequence, synthesis was carried out at each X position with a mixture of about 70%-85% of the parent nucleotide and 15-30% of the remaining 3 nucleotides. The resulting molecules were inserted into fADL-1e (Antibody Design Laboratories), which is a type 3 phage display vector having a cloning site on the N-terminal side of the full-length gene III protein. The fusion proteins are directed to the periplasm by the PelB leader peptide, which is inserted in the vector […].
Collectively, the phage display libraries used in the screens comprised about 600 million peptides, with sequencing analysis confirming a mutation rate of about 50% per residue.
Phage libraries were independently processed, as follows, with five biological samples: two independent samples of excised human nerve tissue, one sample of a human nerve extract, and two independent samples of human muscle tissue, as follows:
Human Nerve Extracts: Phage libraries were incubated for up to 24 hours at 4° C. in 96 well plates that had been coated with a human nerve extract. Plates were then washed with PBS and phage were eluted using 0.2M glycine pH 2.0. Phage supernatants where then neutralized with Tris pH 9.0 prior to plating on TG1 bacteria and LB agar plates. Colonies were counted to determine titer followed by DNA preparation of pools of phage and NextGen sequencing. After rounds of selection, phage were pooled and amplified for iterative selection. Phage that eluted by 0.2M glycine pH 2.0 (the nerve binders) at each round were sequenced. NextGen sequencing of pools after 2, 3 and 4 rounds of selection were used to isolate candidate sequences that were further analyzed using bioinformatics.
NextGen sequencing of pools after 2, 3 and 4 rounds of selection were used to isolate candidate sequences from each of the five samples. These five data sets were then analyzed as described in the next section.
Peptide and vector sequences were translated starting at the first start codon in the nucleotide sequence. […] Trimmed peptides with identical sequences were combined and quantified according to their frequency (count).
Following processing, an R script was written to merge the unique peptide sequences (with counts 6 or greater) from the 5 different data sets to analyze the overlap between nerve and muscle binding activity.
For the single Nerve2, Nerve3, and Plated Nerve2 (pn2) subsets, the number of counts for each group was set at a threshold giving rise to at least 100 peptides. […] As highlighted in yellow in FIG. 1B, the representative group also included 6 unique peptides overlapping between nerve2 and nerve3, 200 unique peptides overlapping between nerve2 and plated nerve2 (at least 60 counts), 4 unique peptides overlapping between nerve3 and plated nerve2. Finally, as highlighted in green in FIG. 1B, the representative group also included […] common to the nerve2, nerve3, and plated nerve2 sets.

| Substance | Count |
| --- | --- |
| 477 (QIRSTEPYYVFKKT) [compound 477] | 54 |
| 473 (QIRWDETYYDIQKT) [compound 473] | 55 |
| 526 (HLPSEKPWYDLDGS) [compound 526] | 39 |
| 552 (HVTSDDSYYAVKNP) [compound 552] | 36 |
| 525 (DFQIVGPSYVGKNS) [compound 525] | 39 |
| 470 (QIPLEGPTYVTNPS) [compound 470] | 57 |
| 485 (YVPYEEQKYVVTKS) [compound 485] | 53 |
| 494 (HIPGEEPSDGVRSY) [compound 494] | 49 |
| 453 (QIPWTQPQYDVTPP) [compound 453] | 79 |
| 467 (QITSDKPYYVVKNS) [compound 467] | 60 |
| 513 (HVPSYAPNYEIKES) [compound 513] | 43 |
| 550 (HVPWDDQYYVWRTN) [compound 550] | 36 |
| 529 (QVPCEQQSCVVKNS) [compound 529] | 39 |
| 512 (QVLEKEPSSNVHKS) [compound 512] | 44 |
| 451 (QGQWDKPYDAVQNS) [compound 451] | 88 |
| 506 (HVPWEGPEYIVTQS) [compound 506] | 45 |
| 532 (QFASEEPYHVMKKP) [compound 532] | 38 |
| 497 (EIPWEGTYRLVKHS) [compound 497] | 48 |
| 528 (QISWEDPDYGVRKS) [compound 528] | 39 |
| 547 (DVPNDLPSYLVKNS) [compound 547] | 36 |
| 482 (QSPFDETAYGLTHS) [compound 482] | 53 |
| 474 (QLALEQQSYDAKMS) [compound 474] | 55 |
| 535 (QLLWGESYSIVKNY) [compound 535] | 38 |
| 527 (HVSWSTSKYVVNHS) [compound 527] | 39 |
| 507 (QFPRHDPNEVVHKS) [compound 507] | 45 |

| Substance | Count |
| --- | --- |
| 450 (QFAWSQSYAYSSTT) [compound 450] | 107 |
| 520 (HVSWEEPRYIVKDS) [compound 520] | 41 |
| 468 (YDPSGEPYYRVNNH) [compound 468] | 59 |
| 452 (QIPGDAQYRLVKRS) [compound 452] | 80 |
| 516 (QFPWDEPNYVVKNF) [compound 516] | 42 |
| 472 (EFRSEQPYYFVNKY) [compound 472] | 55 |
| 505 (HFRGPEPYKFVENP) [compound 505] | 45 |
| 484 (RFPADEEHYVGKLS) [compound 484] | 53 |
| 524 (QFPWHKQFYVGKSS) [compound 524] | 40 |
| 539 (HLPCKKSFYACKKH) [compound 539] | 37 |
| 514 (QHLGEEPSYSGEYA) [compound 514] | 43 |
| 538 (SVAGQQHYYVSTKP) [compound 538] | 38 |
| 492 (HVAYQEPFVYQKTS) [compound 492] | 50 |
| 457 (SYEWEDPYYDLKYS) [compound 457] | 73 |
| 475 (ALPWEHPWCVSKNC) [compound 475] | 54 |
| 531 (LVSPTGPIYVMNKS) [compound 531] | 38 |
| 466 (QIPGGERSYVLENS) [compound 466] | 62 |
| 502 (DVASGEQSYIVVKY) [compound 502] | 46 |
| 471 (AIPSGAPYYKVNKY) [compound 471] | 56 |
| 508 (QIPSEEPNYILKSS) [compound 508] | 45 |
| 491 (QTPRQTLYYSVKAY) [compound 491] | 51 |
| 503 (HVWLEDTISAEKKS) [compound 503] | 46 |
| 459 (HVSCEVPCYGALAS) [compound 459] | 66 |
| 486 (HSQGQTTEYVGKQS) [compound 486] | 52 |
